Columns and labels:
Assay type in all cases: in vivo
[1] = test system: Hordeum vulgare; assay: Preemergence herbicidal activity (Example 67); set-up: herbicide rating, HORVW: scale not given here; settings: pre, 800 g/ha; for herbicide rating, HORVW: rated about 1-3 weeks after treatment
Outline: (§1)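 At a rate of 800g/ha, an aqueous-diluted acetone solution of compound with 0.5% nonionic alkylphenol/ethylene oxide surfactant is applied to the soil of the cups. Greenhouse-held cups are scored on a rating system at about 1-3 weeks.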

[2] = test system: Setaria viridis; assay: Preemergence herbicidal activity (Example 67); set-up: herbicide rating, SETVI: scale not given here; settings: pre, 800 g/ha; for herbicide rating, SETVI: rated about 1-3 weeks after treatment
Outline: as §1

[3] = test system: Helianthus annuus; assay: Postemergence herbicidal activity (Example 67); settings: pos, 800 g/ha; for herbicide rating, HELAN: rated after 10-21 days
Outline: (§2)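 Rate: 800g/ha, sprayed postemergence in 400 L/ha onto seedlings aged 3-6 weeks. Formulation was acetone/0.5% TRITON X-155 diluted in water. Readout: visual rating, 10-21 days after treatment.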

[4] = test system: Ipomoea hederacea; assay: Postemergence herbicidal activity (Example 67); settings: pos, 800 g/ha; for herbicide rating, IPOHE: rated after 10-21 days
Outline: as §2

[5] = test system: Hordeum vulgare; assay: Postemergence herbicidal activity (Example 67); settings: pos, 800 g/ha; for herbicide rating, HORVW: rated after 10-21 days
Outline: as §2

[6] = test system: Amaranthus retroflexus; assay: Postemergence herbicidal activity (Example 67); settings: pos, 800 g/ha; for herbicide rating, AMARE: rated after 10-21 days
Outline: as §2

[7] = test system: Galium aparine; assay: Postemergence herbicidal activity (Example 67); settings: pos, 800 g/ha; for herbicide rating, GALAP: rated after 10-21 days
Outline: as §2

[8] = test system: Setaria viridis; assay: Postemergence herbicidal activity (Example 67); settings: pos, 800 g/ha; for herbicide rating, SETVI: rated after 10-21 days
Outline: as §2

[9] = test system: Alopecurus myosuroides; assay: Postemergence herbicidal activity (Example 67); settings: pos, 800 g/ha; for herbicide rating, ALOMY: rated after 10-21 days
Outline: as §2

[10] = test system: Chenopodium album; assay: Postemergence herbicidal activity (Example 67); settings: pos, 800 g/ha; for herbicide rating, CHEAL: rated after 10-21 days
Outline: as §2

[11] = test system: Triticum aestivum; assay: Postemergence herbicidal activity (Example 67); settings: pos, 800 g/ha; for herbicide rating, TRZAW: rated after 10-21 days
Outline: as §2

[12] = test system: Veronica persica; assay: Postemergence herbicidal activity (Example 67); settings: pos, 800 g/ha; for herbicide rating, VERPE: rated after 10-21 days
Outline: as §2

[13] = test system: Abutilon theophrasti; assay: Postemergence herbicidal activity (Example 67); settings: pos, 800 g/ha; for herbicide rating, ABUTH: rated after 10-21 days
Outline: as §2

[14] = test system: Zea mays; assay: Postemergence herbicidal activity (Example 67); settings: pos, 800 g/ha; for herbicide rating, ZEAMX: rated after 10-21 days
Outline: as §2

[15] = test system: Alopecurus myosuroides; assay: Preemergence herbicidal activity (Example 67); set-up: herbicide rating, ALOMY: scale not given here; settings: pre, 800 g/ha; for herbicide rating, ALOMY: rated about 1-3 weeks after treatment
Outline: as §1

[16] = test system: Triticum aestivum; assay: Preemergence herbicidal activity (Example 67); set-up: herbicide rating, TRZAW: scale not given here; settings: pre, 800 g/ha; for herbicide rating, TRZAW: rated about 1-3 weeks after treatment
Outline: as §1

[17] = test system: Helianthus annuus; assay: Preemergence herbicidal activity (Example 67); settings: pre, 800 g/ha; for herbicide rating, HELAN: rated about 1-3 weeks after treatment
Outline: as §1

[18] = test system: Ipomoea hederacea; assay: Preemergence herbicidal activity (Example 67); settings: pre, 800 g/ha; for herbicide rating, IPOHE: rated about 1-3 weeks after treatment
Outline: as §1

[19] = test system: Amaranthus retroflexus; assay: Preemergence herbicidal activity (Example 67); settings: pre, 800 g/ha; for herbicide rating, AMARE: rated about 1-3 weeks after treatment
Outline: as §1

[20] = test system: Galium aparine; assay: Preemergence herbicidal activity (Example 67); settings: pre, 800 g/ha; for herbicide rating, GALAP: rated about 1-3 weeks after treatment
Outline: as §1

[21] = test system: Chenopodium album; assay: Preemergence herbicidal activity (Example 67); settings: pre, 800 g/ha; for herbicide rating, CHEAL: rated about 1-3 weeks after treatment
Outline: as §1

[22] = test system: Veronica persica; assay: Preemergence herbicidal activity (Example 67); settings: pre, 800 g/ha; for herbicide rating, VERPE: rated about 1-3 weeks after treatment
Outline: as §1

[23] = test system: Abutilon theophrasti; assay: Preemergence herbicidal activity (Example 67); settings: pre, 800 g/ha; for herbicide rating, ABUTH: rated about 1-3 weeks after treatment
Outline: as §1

[24] = test system: Zea mays; assay: Preemergence herbicidal activity (Example 67); settings: pre, 800 g/ha; for herbicide rating, ZEAMX: rated about 1-3 weeks after treatment
Outline: as §1

C[C@H](NC(=O)c1nc(C=Cc2ccccc2)ns1)c1ccccc1 [Example 30]
herbicide rating, HORVW [1]: 0
herbicide rating, SETVI [2]: 0
herbicide rating, HELAN [3]: 2 (6-15%)
herbicide rating, IPOHE [4]: 4 (30-44%)
herbicide rating, HORVW [5]: 0
herbicide rating, AMARE [6]: 2 (6-15%)
herbicide rating, GALAP [7]: 4 (30-44%)
herbicide rating, SETVI [8]: 3 (16-29%)
herbicide rating, ALOMY [9]: 1 (1-5%)
herbicide rating, CHEAL [10]: 4 (30-44%)
herbicide rating, TRZAW [11]: 2 (6-15%)
herbicide rating, VERPE [12]: 0
herbicide rating, ABUTH [13]: 3 (16-29%)
herbicide rating, ZEAMX [14]: 0
herbicide rating, ALOMY [15]: 0
herbicide rating, TRZAW [16]: 0
herbicide rating, HELAN [17]: 0
herbicide rating, IPOHE [18]: 0
herbicide rating, AMARE [19]: 0
herbicide rating, GALAP [20]: 0
herbicide rating, CHEAL [21]: 0
herbicide rating, VERPE [22]: 0
herbicide rating, ABUTH [23]: 2 (6-15%)
herbicide rating, ZEAMX [24]: 0

C[C@H](NC(=O)c1nc(-c2cccc(F)c2)ns1)c1ccccc1 [Example 45, (S)-3-(3-Fluorophenyl)-[1,2,4]thiadiazole-5-carboxylic acid, 1-(phenylethyl)amide]
HOR VW rating [1]: 0
SET VI rating [2]: 0
HEL AN rating [3]: 8 (91-99%)
IPO HE rating [4]: 8 (91-99%)
HOR VW rating [5]: 4 (30-44%)
AMA RE rating [6]: 3 (16-29%)
GAL AP rating [7]: 6 (65-79%)
SET VI rating [8]: 6 (65-79%)
ALO MY rating [9]: 4 (30-44%)
CHE AL rating [10]: 4 (30-44%)
TRZ AW rating [11]: 3 (16-29%)
VER PE rating [12]: 7 (80-90%)
ABU TH rating [13]: 8 (91-99%)
ZEA MX rating [14]: 4 (30-44%)
ALO MY rating [15]: 3 (16-29%)
TRZ AW rating [16]: 0
HEL AN rating [17]: 0
IPO HE rating [18]: 0
AMA RE rating [19]: 0
GAL AP rating [20]: 0
CHE AL rating [21]: 0
VER PE rating [22]: 8 (91-99%)
ABU TH rating [23]: 0
ZEA MX rating [24]: 0

COCCc1nsc(C(=O)NC(C)c2cccs2)n1 (racemic) [Example 33]
herbicide rating, HORVW [1]: 0
herbicide rating, SETVI [2]: 0
herbicide rating, HELAN [3]: 4 (30-44%)
herbicide rating, IPOHE [4]: 4 (30-44%)
herbicide rating, HORVW [5]: 3 (16-29%)
herbicide rating, AMARE [6]: 0
herbicide rating, GALAP [7]: 3 (16-29%)
herbicide rating, SETVI [8]: 6 (65-79%)
herbicide rating, ALOMY [9]: 3 (16-29%)
herbicide rating, CHEAL [10]: 2 (6-15%)
herbicide rating, TRZAW [11]: 2 (6-15%)
herbicide rating, VERPE [12]: 0
herbicide rating, ABUTH [13]: 2 (6-15%)
herbicide rating, ZEAMX [14]: 0
herbicide rating, ALOMY [15]: 0
herbicide rating, TRZAW [16]: 0
herbicide rating, HELAN [17]: 0
herbicide rating, IPOHE [18]: 0
herbicide rating, AMARE [19]: 0
herbicide rating, GALAP [20]: 0
herbicide rating, CHEAL [21]: 2 (6-15%)
herbicide rating, VERPE [22]: 5 (45-64%)
herbicide rating, ABUTH [23]: 0
herbicide rating, ZEAMX [24]: 0

CC(NC(=O)c1nc(-c2ccc(Cl)cc2)ns1)c1cccs1 (racemic) [Example 26]
herbicide rating, HORVW [1]: 0
herbicide rating, SETVI [2]: 0
herbicide rating, HELAN [3]: 7 (80-90%)
herbicide rating, IPOHE [4]: 6 (65-79%)
herbicide rating, HORVW [5]: 3 (16-29%)
herbicide rating, AMARE [6]: 6 (65-79%)
herbicide rating, GALAP [7]: 5 (45-64%)
herbicide rating, SETVI [8]: 5 (45-64%)
herbicide rating, ALOMY [9]: 2 (6-15%)
herbicide rating, CHEAL [10]: 5 (45-64%)
herbicide rating, TRZAW [11]: 2 (6-15%)
herbicide rating, VERPE [12]: 4 (30-44%)
herbicide rating, ABUTH [13]: 5 (45-64%)
herbicide rating, ZEAMX [14]: 4 (30-44%)
herbicide rating, ALOMY [15]: 0
herbicide rating, TRZAW [16]: 0
herbicide rating, HELAN [17]: 0
herbicide rating, IPOHE [18]: 0
herbicide rating, AMARE [19]: 0
herbicide rating, GALAP [20]: 0
herbicide rating, CHEAL [21]: 3 (16-29%)
herbicide rating, VERPE [22]: 2 (6-15%)
herbicide rating, ABUTH [23]: 0
herbicide rating, ZEAMX [24]: 0
